Laboratory results published in patent US10781204B2, “TYK2 inhibitors and uses thereof” (Nimbus Lakshmi, Inc., priority 2015, dated 2020).
pEC50, pKi: −log10 of the molar value.

Columns and labels:
TYK2 = TYK2 (Homo sapiens (Human), UniProt P29597); assay: Tyk2 radioactive kinase assay; format: biochemical; conditions: ATP 10 μM
Procedure: (§1) Peptide substrate, [KKSRGDYMTMQIG], (20 μM) is prepared in reaction buffer (20 mM Hepes pH 7.5, 10 mM MgCl2, 1 mM EGTA, 0.02% Brij35, 0.02 mg/mL BSA, 0.1 mM […], 2 mM DTT, 1% DMSO. TYK2 (Invitrogen) kinase is added, followed by compounds in DMSO. ^33PATP is added to initiate the reaction with ATP at 10 μM. Kinase reaction is incubated for 120 min at room temp and reactions are spotted onto P81 ion exchange paper (Whatman #3698-915), and then washed extensively in 0.75% phosphoric acid, prior to reading the radioactivity counts. For JAK2 (Invitrogen) kinase assay the peptide substrate poly[Glu:Tyr] (4:1), 0.2 mg/ml is used, in the reaction carried out the same as for TYK2.

JAK2 = JAK2 (Homo sapiens (Human), UniProt O60674); assay: JAK2 radioactive kinase assay; format: biochemical; conditions: ATP 10 μM
Sequence of JAK2 (O60674 whole entry): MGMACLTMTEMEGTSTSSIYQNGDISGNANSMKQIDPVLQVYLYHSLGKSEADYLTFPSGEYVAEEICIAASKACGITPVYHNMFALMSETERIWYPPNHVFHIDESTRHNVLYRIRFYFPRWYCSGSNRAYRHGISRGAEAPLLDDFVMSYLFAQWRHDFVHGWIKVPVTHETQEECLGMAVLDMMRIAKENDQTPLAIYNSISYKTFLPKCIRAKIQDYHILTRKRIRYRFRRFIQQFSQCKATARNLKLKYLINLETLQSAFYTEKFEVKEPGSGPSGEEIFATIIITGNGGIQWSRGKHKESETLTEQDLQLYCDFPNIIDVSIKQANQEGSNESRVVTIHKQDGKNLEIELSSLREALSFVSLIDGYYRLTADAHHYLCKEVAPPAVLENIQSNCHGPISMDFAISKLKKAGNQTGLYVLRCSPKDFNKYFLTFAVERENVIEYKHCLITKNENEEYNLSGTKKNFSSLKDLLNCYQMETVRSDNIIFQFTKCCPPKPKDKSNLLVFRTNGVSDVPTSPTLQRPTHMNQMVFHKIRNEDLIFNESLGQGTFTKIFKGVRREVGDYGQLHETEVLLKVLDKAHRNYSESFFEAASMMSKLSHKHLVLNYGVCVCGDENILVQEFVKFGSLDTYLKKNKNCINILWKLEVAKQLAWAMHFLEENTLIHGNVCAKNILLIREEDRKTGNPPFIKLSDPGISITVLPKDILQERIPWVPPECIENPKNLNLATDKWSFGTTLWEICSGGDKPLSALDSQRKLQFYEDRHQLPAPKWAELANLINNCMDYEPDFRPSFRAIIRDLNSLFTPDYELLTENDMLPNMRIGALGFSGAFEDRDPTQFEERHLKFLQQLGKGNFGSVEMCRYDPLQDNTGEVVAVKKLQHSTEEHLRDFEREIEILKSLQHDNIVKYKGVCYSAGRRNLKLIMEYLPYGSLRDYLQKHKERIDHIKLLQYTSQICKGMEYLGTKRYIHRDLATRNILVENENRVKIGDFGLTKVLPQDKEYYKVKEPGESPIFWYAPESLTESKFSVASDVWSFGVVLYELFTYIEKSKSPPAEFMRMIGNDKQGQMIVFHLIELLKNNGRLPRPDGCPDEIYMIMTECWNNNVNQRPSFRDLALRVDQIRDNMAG
Procedure: as §1

[1] = system: Tyk2-pSTAT4 (IL-12 induced pSTAT4); assay: IL-12 induced pSTAT4 in human PBMC; format: cell-based; conditions: Homo sapiens, PBMC, 0.5 h, 1.7 ng/mL IL-12, 30 minutes
Procedure: Human PBMC are isolated from buffy coat and are stored frozen for assays as needed. Cells for assay are thawed and resuspended in complete media containing serum, then cells are diluted to 1.67 E6 cells/ml so that 120 ul per well is 200,000 cells. 15 ul of compound or DMSO is added to the well at the desired concentrations and incubated at 1 hr at 37 C. 15 ul of stimulus (final concentration of 1.7 ng/mL IL-12) is added for 30 minutes prior to pSTAT4 and total STAT4 analysis using cell lysates prepared and analyzed by MSD reagents as per manufacturer protocol. The final DMSO concentration of compound in the assay is 0.1%.

Sequence of TYK2 (P29597 whole entry): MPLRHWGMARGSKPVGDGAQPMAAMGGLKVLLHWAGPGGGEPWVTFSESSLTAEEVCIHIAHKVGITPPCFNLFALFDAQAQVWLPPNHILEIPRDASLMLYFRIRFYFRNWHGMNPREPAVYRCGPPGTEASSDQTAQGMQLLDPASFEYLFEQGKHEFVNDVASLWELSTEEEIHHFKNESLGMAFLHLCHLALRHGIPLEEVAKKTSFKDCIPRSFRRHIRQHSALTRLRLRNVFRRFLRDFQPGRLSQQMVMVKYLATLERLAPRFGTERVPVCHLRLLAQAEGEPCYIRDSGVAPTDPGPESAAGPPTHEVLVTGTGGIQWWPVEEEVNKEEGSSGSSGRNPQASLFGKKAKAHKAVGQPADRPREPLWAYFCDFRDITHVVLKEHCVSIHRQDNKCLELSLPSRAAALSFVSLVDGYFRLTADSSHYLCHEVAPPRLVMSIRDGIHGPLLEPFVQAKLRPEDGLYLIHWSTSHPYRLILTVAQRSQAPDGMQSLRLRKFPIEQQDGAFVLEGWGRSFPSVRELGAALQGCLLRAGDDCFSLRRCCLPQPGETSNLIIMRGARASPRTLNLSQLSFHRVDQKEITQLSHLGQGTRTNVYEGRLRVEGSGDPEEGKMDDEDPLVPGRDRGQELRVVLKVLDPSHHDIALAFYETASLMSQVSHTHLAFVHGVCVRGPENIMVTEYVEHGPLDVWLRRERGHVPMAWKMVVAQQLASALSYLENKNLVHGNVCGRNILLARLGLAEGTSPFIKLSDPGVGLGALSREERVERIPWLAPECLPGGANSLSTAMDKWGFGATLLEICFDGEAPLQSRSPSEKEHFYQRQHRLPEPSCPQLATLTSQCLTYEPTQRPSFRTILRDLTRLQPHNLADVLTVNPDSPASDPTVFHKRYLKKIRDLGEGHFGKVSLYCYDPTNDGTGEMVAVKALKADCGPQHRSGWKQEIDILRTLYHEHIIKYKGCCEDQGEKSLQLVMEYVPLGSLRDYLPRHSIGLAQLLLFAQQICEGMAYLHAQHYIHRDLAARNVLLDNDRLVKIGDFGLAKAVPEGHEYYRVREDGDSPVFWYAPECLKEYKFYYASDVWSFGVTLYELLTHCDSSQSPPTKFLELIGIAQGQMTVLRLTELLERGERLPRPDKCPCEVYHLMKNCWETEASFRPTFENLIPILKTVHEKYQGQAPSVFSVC

pKi (TYK2) | pKi (JAK2) | pEC50 [1] | SMILES
8.00 to 10.00 | 8.00 to 10.00 | 5.70 to 7.00 | N#Cc1cccc(F)c1-c1cc(-n2ccc(N3CCC[C@@H](N)C3)n2)c2c(n1)CNC2=O [I-73, (R)-2-(4-(3-(3-aminopiperidin-1-yl)-1H-pyrazol-1-yl)-5-oxo-6,7-dihydro-5H-pyrrolo[3,4-b]pyridin-2-yl)-3-fluorobenzonitrile]
8.00 to 10.00 | 7.00 to 8.00 | 7.00 to 7.52 | N#Cc1cccc(F)c1-c1cc(-n2cc3c(n2)CCCN3)c2c(n1)CNC2=O [I-77, 3-fluoro-2-(5-oxo-4-(4,5,6,7-tetrahydro-2H-pyrazolo[4,3-b]pyri-din-2-yl)-6,7-dihydro-5H-pyrrolo[3,4-b]pyridin-2-yl)benzonitrile]
8.00 to 10.00 | 7.00 to 8.00 | 5.70 to 7.00 | N#Cc1cccc(F)c1-c1cc(-n2ccc(N3CCCC(CO)C3)n2)c2c(n1)CNC2=O (stereo not drawn) [I-86, 3-fluoro-2-(4-(3-(3-(hydroxymethyl)piperidin-1-yl)-1H-pyrazol-1-yl)-5-oxo-6,7-dihydro-5H-pyrrolo[3,4-b]pyridin-2-yl)benzonitrile]
8.00 to 10.00 | 7.00 to 8.00 | 7.00 to 7.52 | C[C@]1(O)CCN(c2ccn(-c3cc(-c4c(F)cccc4C#N)nc4c3C(=O)NC4)n2)C1 [I-93, (S)-3-fluoro-2-(4-(3-(3-hydroxy-3-methylpyrrolidin-1-yl)-1H-pyrazol-1-yl)-5-oxo-6,7-dihydro-5H-pyrrolo[3,4-b]pyridin-2-yl)benzonitrile]
8.00 to 10.00 | 7.00 to 8.00 | 5.70 to 7.00 | N#Cc1cccc(F)c1-c1cc(-n2ccc(N3CC[C@@H](O)[C@@H](O)C3)n2)c2c(n1)CNC2=O [I-105, 2-(4-(3-((3S,4R)-3,4-dihydroxypiperidin-1-yl)-1H-pyrazol-1-yl)-5-oxo-6,7-dihydro-5H-pyrrolo[3,4-b]pyridin-2-yl)-3-fluorobenzonitrile]
8.00 to 10.00 | 7.00 to 8.00 | 7.00 to 7.52 | N#Cc1cccc(F)c1-c1cc(-n2ccc(N3CC[C@@H](C#N)C3)n2)c2c(n1)CNC2=O [I-127, (R)-1-(1-(2-(2-cyano-6-fluorophenyl)-5-oxo-6,7-dihydro-5H-pyrrolo[3,4-b]pyridin-4-yl)-1H-pyrazol-3-yl)pyrrolidine-3-carbonitrile]
8.00 to 10.00 | 7.00 to 8.00 | 7.00 to 7.52 | N#Cc1cccc(F)c1-c1cc(-n2ccc(N3CC[C@H](C#N)C3)n2)c2c(n1)CNC2=O [I-128, (S)-1-(1-(2-(2-cyano-6-fluorophenyl)-5-oxo-6,7-dihydro-5H-pyrrolo[3,4-b]pyridin-4-yl)-1H-pyrazol-3-yl)pyrrolidine-3-carbonitrile]
8.00 to 10.00 | 7.00 to 8.00 | 5.70 to 7.00 | N#Cc1cccc(F)c1-c1cc(-n2ccc(N3CCOC[C@H](O)C3)n2)c2c(n1)CNC2=O [I-132, (R)-3-fluoro-2-(4-(3-(6-hydroxy-1,4-oxazepan-4-yl)-1H-pyrazol-1-yl)-5-oxo-6,7-dihydro-5H-pyrrolo[3,4-b]pyridin-2-yl)benzonitrile]
8.00 to 10.00 | 8.00 to 10.00 | 5.70 to 7.00 | CS(=O)(=O)N[C@@H]1CCN(c2ccn(-c3cc(-c4c(F)cccc4C#N)nc4c3C(=O)NC4)n2)C1 [I-134, (R)-N-(1-(1-(2-(2-cyano-6-fluorophenyl)-5-oxo-6,7-dihydro-5H-pyrrolo[3,4-b]pyridin-4-yl)-1H-pyrazol-3-yl)pyrrolidin-3-yl)methanesulfonamide]
8.00 to 10.00 | 8.00 to 10.00 | 5.70 to 7.00 | N#Cc1cccc(F)c1-c1cc(-n2ccc(N3CCCNC(=O)C3)n2)c2c(n1)CNC2=O [I-140, 3-fluoro-2-(5-oxo-4-(3-(3-oxo-1,4-diazepan-1-yl)-1H-pyrazol-1-yl)-6,7-dihydro-5H-pyrrolo[3,4-b]pyridin-2-yl)benzonitrile]
10.00 to 11.05 | 8.00 to 10.00 | 7.00 to 7.52 | N#Cc1cccc(F)c1-c1cc(-n2ccc(N3CCC(F)C(O)C3)n2)c2c(n1)CNC2=O (stereo not drawn) [I-160, 3-fluoro-2-(4-(3-(4-fluoro-3-hydroxypiperidin-1-yl)-1H-pyrazol-1-yl)-5-oxo-6,7-dihydro-5H-pyrrolo[3,4-b]pyridin-2-yl)benzonitrile]
8.00 to 10.00 | 8.00 to 10.00 | 5.70 to 7.00 | N#Cc1cccc(F)c1-c1cc(-n2ccc(N3CCC[C@@H](C(=O)N4CCCC4)C3)n2)c2c(n1)CNC2=O [I-167, (R)-3-fluoro-2-(5-oxo-4-(3-(3-(pyrrolidine-1-carbonyl)piperidin-1-yl)-1H-pyrazol-1-yl)-6,7-dihydro-5H-pyrrolo[3,4-b]pyridin-2-yl)benzonitrile]
8.00 to 10.00 | 8.00 to 10.00 | 7.00 to 7.52 | N#Cc1cccc(F)c1-c1cc(-n2ccc(N3C[C@@H]4OCCO[C@@H]4C3)n2)c2c(n1)CNC2=O [I-169, 3-fluoro-2-(4-(3-((4aR,7aS)-hexahydro-6H-[1,4]dioxino[2,3-c]pyrrol-6-yl)-1H-pyrazol-1-yl)-5-oxo-6,7-dihydro-5H-pyrrolo[3,4-b]pyridin-2-yl)benzonitrile]
8.00 to 10.00 | 6.00 to 7.00 | 5.70 to 7.00 | N#Cc1cccc(F)c1-c1cc(-n2ccc(N3CCNC(=O)C3)n2)c2c(n1)CNC2=O [I-175, 3-fluoro-2-(5-oxo-4-(3-(3-oxopiperazin-1-yl)-1H-pyrazol-1-yl)-6,7-dihydro-5H-pyrrolo[3,4-b]pyridin-2-yl)benzonitrile]
8.00 to 10.00 | 8.00 to 10.00 | 7.00 to 7.52 | C[C@@]1(O)CN(c2ccn(-c3cc(-c4c(F)cccc4C#N)nc4c3C(=O)NC4)n2)CC[C@H]1O [I-182, 2-(4-(3-((3R,4R)-3,4-dihydroxy-3-methylpiperidin-1-yl)-1H-pyrazol-1-yl)-5-oxo-6,7-dihydro-5H-pyrrolo[3,4-b]pyridin-2-yl)-3-fluorobenzonitrile]
10.00 to 11.05 | 8.00 to 10.00 | 5.70 to 7.00 | CC1(C)C(O)CCN1c1ccn(-c2cc(-c3c(F)cccc3C#N)nc3c2C(=O)NC3)n1 (stereo not drawn) [I-187, 3-fluoro-2-(4-(3-(3-hydroxy-2,2-dimethylpyrrolidin-1-yl)-1H-pyrazol-1-yl)-5-oxo-6,7-dihydro-5H-pyrrolo[3,4-b]pyridin-2-yl)benzonitrile]
8.00 to 10.00 | 8.00 to 10.00 | 5.70 to 7.00 | [2H]C1([2H])N(c2ccn(-c3cc(-c4c(F)cccc4C#N)nc4c3C(=O)NC4)n2)C([2H])([2H])C([2H])(O)C1([2H])[2H] (stereo not drawn) [I-194, 3-fluoro-2-(4-(3-(3-hydroxypyrrolidin-1-yl-2,2,3,4,4,5,5-d7)-1H-pyrazol-1-yl)-5-oxo-6,7-dihydro-5H-pyrrolo[3,4-b]pyridin-2-yl)benzonitrile]
8.00 to 10.00 | 7.00 to 8.00 | 5.70 to 7.00 | N#Cc1cccc(F)c1-c1cc(-n2ccc(N3CC[C@@](O)(C(=O)N4CCCC4)C3)n2)c2c(n1)CNC2=O [I-197, (S)-3-fluoro-2-(4-(3-(3-hydroxy-3-(pyrrolidine-1-carbonyl)-pyrrolidin-1-yl)-1H-pyrazol-1-yl)-5-oxo-6,7-dihydro-5H-pyrrolo[3,4-b]pyridin-2-yl)benzonitrile]
8.00 to 10.00 | 7.00 to 8.00 | 5.70 to 7.00 | N#Cc1cccc(F)c1-c1cc(-n2ccc(N3CC[C@]4(C3)OC[C@@H](O)CO4)n2)c2c(n1)CNC2=O [I-222, 3-fluoro-2-(4-(3-((5s,8s)-8-hydroxy-6,10-dioxa-2-azaspiro[4.5]decan-2-yl)-1H-pyrazol-1-yl)-5-oxo-6,7-dihydro-5H-pyrrolo[3,4-b]pyridin-2-yl)benzonitrile]
